Measured values taken from ChEMBL document CHEMBL1151894, “Novel immunoconjugates comprised of streptonigrin and 17-amino-geldanamycin attached via a dipeptide-p-aminobenzyl-amine linker system” (Bioorg Med Chem Lett, 2009).

Experiments:
Type in all cases: functional, cell-based
[1] = Cytotoxicity against CD30 expressing and CD70 deficient human L540cy cells after 96 hrs by resazurin conversion assay
KARPAS-299 = assay: Cytotoxicity against CD30 expressing and CD70 deficient human KARPAS299 cells after 96 hrs by resazurin conversion assay; settings: KARPAS-299, 96 h
CAKI-1 = assay: Cytotoxicity against CD30 deficient and CD70 expressing human Caki1 cells after 96 hrs by resazurin conversion assay; settings: CAKI-1, 96 h

Q: With `COC1=C(N)C(=O)c2nc(-c3nc(C(=O)O)c(C)c(-c4ccc(OC)c(OC)c4O)c3N)ccc2C1=O` [STREPTONIGRIN] as the molecule, how does the IC50 [1] read?
A: 0.8 nM

Q: What about the IC50 (KARPAS-299) of the same molecule?
A: 0.4 nM

Q: And the IC50 (CAKI-1)?
A: 0.4 nM
